Laboratory results: patent US5304473A (Eli Lilly and Company, priority 1991, dated 1994)

Experiments:
[1] = system: human placental IGF-I receptor; assay: Human placental IGF-I receptor binding assay (competition with 125I IGF-I); conditions: human placental membranes
Method: (§1) Metab., Vol.67, pgs. 194-197, the entire teaching of which is hereby incorporated by reference, except that the incubation was performed at 4° C. for 18 hours and membranes were collected on a Skatron Cell Harvester (commercially available from Skatron, Inc., Sterling, Va.). The glucose transport assay in rat adipocytes was performed in substantial accordance with the teachings of Kashwagi, M., et al., (1983) J. Clin, Invest., Vol.72, pgs. 1246-1254, the entire teaching of which is hereby incorporated by reference.

[2] = system: human placental insulin receptor; assay: Human placental insulin receptor binding assay (competition with 125I insulin); conditions: placental membrane insulin receptors
Method: as §1

[3] = system: fasted, male, lean Sprague-Dawley rats; assay: In vivo hypoglycemic effect in fasted rats; set-up: species or system rat; conditions: for Max. hypoglycemic effect (percent) 1 hour: 1 hour after subcutaneous administration; for Max. hypoglycemic effect (percent) 1 hour / Max. hypoglycemic effect (percent) 2 hours: percent change from zero time corrected for control group; for Max. hypoglycemic effect (percent) 1 hour / Max. hypoglycemic effect (percent) 2 hours / ED50 1 hour / ED50 2 hours: mean ± S.E.M.; for Max. hypoglycemic effect (percent) 2 hours: 2 hours after subcutaneous administration; for ED50 1 hour: half the maximal hypoglycemic activity 1 hour after subcutaneous administration; for ED50 2 hours: half the maximal hypoglycemic activity 2 hours after subcutaneous administration
Method: The data presented in Table III were obtained in tests carried out in fasted, male, lean Sprague-Dawley rats (Charles River Laboratories).
In vivo activity of ACB-proinsulins was determined in fasted rats. Male, lean Sprague-Dawley rats (obtained from Charles River Laboratories, Wilmington, Mass. 01887) 190-210 g bodyweight, were fasted for 16 hours. Ten animals were chosen at random and divided into two groups of five rats each. The control group received a subcutaneous saline injection (0.1 ml per 100 g bodyweight) while the experimental groups received a saline injection containing the test peptide. Blood (0.1 ml) was obtained from the tail of each rat for glucose determination (Sigma Diagnostics, glucose [Trinder], address) before administration of the peptide and again at 30 minutes, 1, 2, 3 and 4 hours after administration of the peptide.
The mean percent change from zero time plus or minus S.E.M. in blood glucose for control and treated groups of rats were calculated and the final results expressed by adjusting the change in the experimental group for the change in the control group. The effect of 5 to 7 different doses of each peptide was routinely determined.

[4] = system: rat adipocytes; assay: Glucose transport assay in rat adipocytes; assay type: cell-based; conditions: glucose uptake by adipocytes
Method: as §1

Row | ED50 IGF-I Receptor [1] [nM] | ED50 Insulin Receptor [2] [nM] | Substance | Max. hypoglycemic effect (percent) 1 hour [3] [%] | Relative biological action to insulin 1 hour ([3]; 1 hour, subcutaneous, insulin = 100.0) | Max. hypoglycemic effect (percent) 2 hours [3] [%] | Relative biological action to insulin 2 hours ([3]; 2 hours, subcutaneous, insulin = 100.0) | ED50 1 hour [3] [nM] | ED50 2 hours [3] [nM] | time of maximal hypoglycemic response after subcutaneous administration ([3]; s.c. administration) [h] | ED50 Glucose Transport [4] [nM] | time at which blood glucose levels returned to baseline ([3]; s.c. administration) [h]
1 | 10000 | 20.4 | Proinsulin: naturally occurring human (BCA) proinsulin, reference | 55.1 ± 2.6 | 14.3 ± 2.8 | 61.0 ± 4.0 | 19.5 ± 1.8 | 91. ± 1.7 | 8.2 ± 0.8 | 2 | – | –
2 | – | – | Insulin: human insulin, two-chain protein hormone, reference | 59.0 ± 4.3 | – | 45.7 ± 6.7 | – | 1.0 ± 0.01 | 1.6 ± 0.09 | 1 | 0.043 | 3 to 4
3 | 0.45 | – | IGF-I: human IGF-I, reference ligand of the IGF-I receptor | – | – | – | – | – | – | – | – | –
